What was measured:
Cannabinoid receptor 1 = Cannabinoid receptor 1 (Homo sapiens, UniProt P21554); experiment: Inverse agonist activity at human CB1 receptor expressed in CHOK1 cells co-expressing Galphaq16 assessed as apparent equilibrium constant after 90 secs by […]-4 AM dye-based FLIPR assay; type: cell-based
Homo sapiens = species on record: Homo sapiens; experiment: Selectivity ratio of Ki for displacement of [3H]-CP55940 from human CB2 receptor expressed in CHO cell membranes to Ki for displacement of [3H]-CP55940 from human CB1 receptor expressed in CHO cell membranes

Sequence of Cannabinoid receptor 1 (P21554 whole entry): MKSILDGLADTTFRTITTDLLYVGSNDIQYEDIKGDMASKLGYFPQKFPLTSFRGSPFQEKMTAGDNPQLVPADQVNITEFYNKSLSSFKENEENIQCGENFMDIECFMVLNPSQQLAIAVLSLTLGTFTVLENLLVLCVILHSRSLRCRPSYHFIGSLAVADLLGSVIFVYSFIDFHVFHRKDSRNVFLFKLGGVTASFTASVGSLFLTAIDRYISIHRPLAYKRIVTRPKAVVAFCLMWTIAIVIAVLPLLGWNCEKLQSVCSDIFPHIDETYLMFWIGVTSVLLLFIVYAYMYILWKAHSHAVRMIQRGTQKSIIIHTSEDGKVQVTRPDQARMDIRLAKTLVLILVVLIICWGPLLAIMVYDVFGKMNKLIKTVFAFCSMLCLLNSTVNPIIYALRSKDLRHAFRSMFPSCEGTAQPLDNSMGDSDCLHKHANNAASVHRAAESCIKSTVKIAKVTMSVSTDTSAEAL

| SMILES | Ke(app) (Cannabinoid receptor 1) [nM] | Ratio Ki (Homo sapiens) |
| --- | --- | --- |
| O=C(NC1CCN(c2ncnc3c2nc(-c2ccccc2Cl)n3-c2ccc(Cl)cc2)CC1)C1CCOCC1 | 440 | – |
| O=C(CC1CCOCC1)NC1CCN(c2ncnc3c2nc(-c2ccccc2Cl)n3-c2ccc(Cl)cc2)CC1 | 510 | – |
| O=S(=O)(NC1CCN(c2ncnc3c2nc(-c2ccccc2Cl)n3-c2cc(C(F)(F)F)[nH]n2)CC1)c1ccc(F)c(F)c1 | 5000 | – |
| CN(Cc1ccc(F)cc1)C1CCN(c2ncnc3c2nc(-c2ccccc2Cl)n3-c2ccc(Cl)cc2)CC1 | 460 | – |
| O/N=C(\c1ccc(F)cc1)C1CCN(c2ncnc3c2nc(-c2ccccc2Cl)n3-c2ccc(Cl)cc2)CC1 (stereo in doubt; 20) | 20 | > 2000 |
| O=C(NC1CCN(c2ncnc3c2nc(-c2ccccc2Cl)n3-c2ccc(Cl)cc2)CC1)OCC1COC1 | 77 | – |
| O=C(NC1CCN(c2ncnc3c2nc(-c2ccccc2Cl)n3-c2ccc(Cl)cc2)CC1)OC1CCOCC1 | 320 | – |
| O/N=C(\c1ccc(F)cc1)C1CCN(c2ncnc3c2nc(-c2ccccc2Cl)n3-c2ccc(Cl)cc2)CC1 (stereo in doubt; 21) | 21 | > 1400 |
| Cn1cc(-n2c(-c3ccccc3Cl)nc3c(N4CCC(NS(=O)(=O)c5ccc(F)c(F)c5)CC4)ncnc32)cn1 | 140 | – |
| Cn1nnnc1CCC(=O)NC1CCN(c2ncnc3c2nc(-c2ccccc2Cl)n3-c2ccc(Cl)cc2)CC1 | > 10000 | – |
| CS(=O)(=O)CCC(=O)NC1CCN(c2ncnc3c2nc(-c2ccccc2Cl)n3-c2ccc(Cl)cc2)CC1 | 6000 | – |
| CC(=O)Nc1ccc(-n2c(-c3ccccc3Cl)nc3c(N4CCC(NS(=O)(=O)c5ccc(F)c(F)c5)CC4)ncnc32)cn1 | 2700 | – |
| O=C(CC1CCOC1)NC1CCN(c2ncnc3c2nc(-c2ccccc2Cl)n3-c2ccc(Cl)cc2)CC1 (stereo not drawn) | 1000 | – |
| Nc1ccc(-n2c(-c3ccccc3Cl)nc3c(N4CCC(NS(=O)(=O)c5ccc(F)c(F)c5)CC4)ncnc32)cn1 | > 10000 | – |
| O=C(NC1CCN(c2ncnc3c2nc(-c2ccccc2Cl)n3-c2ccc(Cl)cc2)CC1)C1CCS(=O)(=O)CC1 | > 10000 | – |
| Cn1ccc(-n2c(-c3ccccc3Cl)nc3c(N4CCC(NS(=O)(=O)c5ccc(F)c(F)c5)CC4)ncnc32)n1 | 120 | – |
| NC(=O)c1ccc(-n2c(-c3ccccc3Cl)nc3c(N4CCC(NS(=O)(=O)c5ccc(F)c(F)c5)CC4)ncnc32)cc1 | 330 | – |
| CN1CCC(COC(=O)NC2CCN(c3ncnc4c3nc(-c3ccccc3Cl)n4-c3ccc(Cl)cc3)CC2)CC1 | 1500 | – |
| O=C(CN1CCOCC1)NC1CCN(c2ncnc3c2nc(-c2ccccc2Cl)n3-c2ccc(Cl)cc2)CC1 | 1100 | – |
| O=C(NC1CCN(c2ncnc3c2nc(-c2ccccc2Cl)n3-c2ccc(Cl)cc2)CC1)C1CCOC1 (stereo not drawn) | 150 | – |
| O=C(CN1CCCCC1)NC1CCN(c2ncnc3c2nc(-c2ccccc2Cl)n3-c2ccc(Cl)cc2)CC1 | 220 | – |

Continued, in another order:

| Ke(app) (Cannabinoid receptor 1) [nM] | SMILES | Ratio Ki (Homo sapiens) |
| --- | --- | --- |
| 210 | Fc1ccc(CNC2CCN(c3ncnc4c3nc(-c3ccccc3Cl)n4-c3ccc(Cl)cc3)CC2)cc1 | – |
| 240 | CCOCC(=O)NC1CCN(c2ncnc3c2nc(-c2ccccc2Cl)n3-c2ccc(Cl)cc2)CC1 | – |
| 100 | Clc1ccc(-n2c(-c3ccccc3Cl)nc3c(N4CCC(Nc5ccncc5)CC4)ncnc32)cc1 | – |
| 150 | Clc1ccc(-n2c(-c3ccccc3Cl)nc3c(N4CCC(NCc5ccccc5)CC4)ncnc32)cc1 | – |
| 140 | O=C(NC1CCN(c2ncnc3c2nc(-c2ccccc2Cl)n3-c2ccc(Cl)cc2)CC1)c1ccccn1 | – |
| 370 | COCCC(=O)NC1CCN(c2ncnc3c2nc(-c2ccccc2Cl)n3-c2ccc(Cl)cc2)CC1 | – |
| 580 | Clc1ccc(-n2c(-c3ccccc3Cl)nc3c(N4CCC(NCc5ccncc5)CC4)ncnc32)cc1 | – |
| 43 | Clc1ccc(-n2c(-c3ccccc3Cl)nc3c(N4CCC(Nc5ncccn5)CC4)ncnc32)cc1 | – |
| 1700 | CC(C)(O)CC(=O)NC1CCN(c2ncnc3c2nc(-c2ccccc2Cl)n3-c2ccc(Cl)cc2)CC1 | – |
| 92 | O=C(NC1CCN(c2ncnc3c2nc(-c2ccccc2Cl)n3-c2ccc(Cl)cc2)CC1)OC1COC1 | – |

— ChEMBL document CHEMBL4385641 (Bioorg Med Chem, 2019)
